Assay results published in patent US20160355782A1, “METHOD FOR ENHANCING DIFFERENTIATION OF DOPAMINERGIC NEURONS” (Buddhist Tzu Chi Medical Foundation, priority 2015, published 2016).

Tests used:
Assay type in all cases: cell-based, rat
[1] = tested on: cortical neural precursor cells (NPCs); test: TH+ cell differentiation of lentivirus-transduced (Nurr1 or GFP) cortical NPCs
Procedure: Cultures of neural precursor cells (NPCs) derived from cortices at E13.5 were performed as the methods known by a person skilled in the art, for example, as the protocol described by Huang et al. (2012) and carried out with some modifications. Briefly, dissected cortical tissues were mechanically triturated and plated at 5×10^4 cells on coverslips (12-mm diameter) pre-coated with 20 μg/mL fibronectin (Invitrogen)/15 μg/mL poly-L-ornithine (Sigma-Aldrich) in 24 well plates. Cells were cultured in a serum-free NPCs culture medium containing DMEMF12, 2% B27 supplement (Invitrogen), 0.6% glucose, 20 ng/mL bFGF (Sigma-Aldrich), 20 ng/mL EGF (Invitrogen), 2 μg/mL heparin (Sigma-Aldrich), 100 U/mL penicillin, and 100 μg/mL streptomycin.
TH promoter assay or lenti-virial transductions were carried out at 60%˜70% cell confluences (usually for 3 days) as described below. Cell differentiation was induced for 3 to 5 days by switching to mitogens-free DMEM/F12/N2 medium in the presence of 0.5 μM UCN. Differentiation medium was changed every other day.
For lenti-viral transduction, E13 cortical NPCs were incubated with lenti-viruses (25 multiplicity of infection) expressing Nurr1 or GFP containing poly-brene (hexadimethrine bromide, 1 μg/mL, Sigma-Aldrich) for 24 hours. After 1 day of further cell expansion in the presence of the mitogens, cells were induced to differentiate.
(§1) For immuno-cytochemistry, cells were fixed with 4% paraformaldehyde followed by blocking with PBS containing 0.4% Triton X-100, 3% normal goat serum and 2% bovine serum albumin (BSA) for 1 h at room temperature. After blocking, cells were incubated overnight at room temperature with primary antibodies. Primary antibodies were rabbit anti-UCN (1:200), mouse anti-TH (1:2000) (both from Sigma-Aldrich), goat anti-CRHR1 (1:100), rabbit anti-CRHR2 (1:250), rat anti-dopamine transporter (DAT, 1:200), chicken anti-MAP2 (1:5000) (all from Abcam, Cambridge, Mass.), rabbit anti-Nurr1 (1:100, Santa Cruz Biotechnology), mouse anti-Nurr1 (1:100, R&D Systems, Minneapolis, Minn.), rabbit anti-TH (1:1000), mouse anti-NeuN (1:200) (both from Chemicon, Temecula, Calif.), rabbit anti-acetyl-histone H3 (1:1000, Upstate Biotechnology, Lake Placid, N.Y.), rabbit anti-Foxa2 (1:500, Cell Signaling Technology), and rabbit anti-Pitx3 (1:100, Invitrogen).
For detection of dopaminergic neurons, the bound anti-TH antibody was visualized by incubation with an appropriate biotinylated secondary antibody followed by the Vectastain avidin-biotin-peroxidase (ABC) reagents (Vector Laboratories, Burlingame, Calif.) and color development with 3,3′-diaminobenzidine. The number of TH-positive neurons were counted in the entire surface area of a culture well or coverslip. For fluorescent double-labeling experiments, cells were incubated for 1 h at room temperature with rhodamine-conjugated donkey anti-mouse IgG (1:250), FITC-conjugated goat anti-rabbit IgG (1:250) or FITC-conjugated donkey anti-goat IgG (1:200) secondary antibodies (all from Jackson Immuno Research, West Grove, Pa.). Samples were counter-stained with Hoechst 33342 (5 μg/mL, Sigma-Aldrich) or DAPI (1 μg/mL), and mounted with 50% glycerol in PBS. Microscopic observations were done with a Zeiss Axiovert 200 M fluorescent microscope or a Zeiss LSM 510 META confocal imaging system (Carl Zeiss, Oberkochen, Germany). Immuno-reactive or Hoechst 33342-stained cells were counted in at least 10 random areas of each culture coverslip at a magnification of 100×.

[2] = tested on: TH promoter in Nurr1-transfected cortical NPCs; test: TH promoter assay (pAAV-Nurr1 and pTH6.0-GL3) in cortical NPCs; details: 24 hours
Source text: The luciferase reporter vector pTH6.0-GL3 constructed by engineering the 6.0 kb upstream sequences of the rat TH (TH6.0) gene into pGL3 was kindly provided by Dr. Kwang-Soo Kim (Harvard Medical School, Belmont, Mass.). Vector expressing Nurr1 (mouse) was constructed by inserting the respective cDNA into pAAV-MCS vector (pAAV-Nurr1), in which the cloned gene is designed to be expressed under the control of the cytomegalovirus (CMV) immediate-early promoter. pTH6.0-GL3 alone or combined with pAAV-Nurr1 were transfected into a human neuro-blastoma SH-SY5Y cell line or cortical NPCs, respectively, using Lipofectamine 2000 (Invitrogen) according to the protocol of the manufacturer. For determine the effect of MeCP2-CoREST-HDAC1 repressor complex on TH promoter activity, the SH-SY5Y cells were double transfected with pTH6.0-GL3 and pCMV6-Entry-Mecp2 (Flag-tagged MeCP2)/or pCMV6-Entry-Rcor1 (Flag-tagged CoREST) (both from OriGene Technologies, Rockville, Md.)/or pK7-HDAC1-GFP (Addgene). […] Luciferase activity of cell lysates was determined luminometrically by the luciferase assay system (Promega, Madison, Wis.) as specified by the manufacturer. Luciferase activity was normalized to the protein content of the extracts. Relative luciferase activity was determined to reflect promoter activity of TH, expressed as the fold increase relative to the activity of control or untreated mock control.

[3] = tested on: acetylated histone H3 (Ac-H3); test: Histone H3 acetylation (Western blot, immuno-staining) in VM precursor cultures
Procedure: as §1
For Western blot analysis, VM precursor cells were lysed in M-PER® Mammalian Protein Extraction Reagent (Pierce). Protein concentration was determined by Bradford assay (Bio-Rad, Hercules, Calif.). 30˜50 μg of protein sample was separated on 10˜12% sodium dodecyl sulphate-polyacrylamide gel (SDS-PAGE) and transferred to immobilon polyvinylidene difluoride (PVDF) membranes (Merck Millipore). The membranes were incubated in Tris-buffered saline (TBST, 0.1 M Tris/HCl, pH 7.4, 0.9% NaCl, 0.1% Tween 20) supplemented with 5% non-fat dry milk for 1 h to block nonspecific binding. […] The antigen-antibody complex was detected by using an ECL chemi-luminescence detection system (PerkinElmer, Boston, Mass.). The intensity of the bands was quantified with a GS-800 calibrated densitometer (Bio-Rad), and calculated as the optical density X area of bands.

CCCC(=O)[O-].[Na+] [SB, sodium butyrate, reference compound]
TH+ cell numbers ([1]; Nurr1-transduced cortical NPCs, SB, 3 days): increase in TH^+ cell numbers
TH promoter activity ([2]; 0.5 mM SB): increase TH promoter activity

Urocortin [UCN]
conversion of Nurr1+ cortical NPCs into DA neurons ([1]; 0.5 μM UCN, 3 days): increased the conversion
TH+ cells expressing the mature DA neuron-specific marker DAT ([1]; Nurr1-transduced NPCs, 0.5 μM UCN, 4 days): almost all of TH^+ cells
TH+ cell numbers ([1]; cortical NPCs transduced with GFP, 0.5 μM UCN, 3 days): do not change
TH+ cell numbers ([1]; cortical NPCs transduced with Nurr1, 0.5 μM UCN, 3 days): increase in TH^+ cell numbers
TH promoter activity (relative luciferase activity) ([2]; 1 μM UCN): activation of the TH promoter
Ac-H3-immuno-reactivity in non- or Nurr1-expressing cells ([3]; 1 μM UCN, 1 hour): increased
levels of Ac-H3 (Western blot) ([3]; 1 μM UCN, within minutes): significantly increases
duration of histone H3 acetylation ([3]; single application of UCN): at least 48 hours
